system: TNF-α production induced by LPS (plasma TNF-α); test: In vivo test: plasma TNF-α level in LPS-administered mice; conditions: female mice; 10 mg/kg subcutaneously immediately after LPS i.p.; plasma one hour after LPS; mouse TNF-α ELISA
Protocol: (§1) Each candidate compound was inspected for the effect of inhibiting TNF-α production induced by the stimulation with lipopolysaccharide (LPS), by an in vitro or in vivo test according to the method proposed by McGeehan et al. (Nature, 1994, 370:558-561).
Animals used herein were about 7-week-old female mice (5 animals per group) having a body weight of about 20 g. The LPS herein used was derived from Salmonella and it was dissolved in phosphate-buffered physiological saline prior to the practical use (20 μg/ml). Each candidate compound was dissolved or suspended in a 2% dimethyl sulfoxide-containing physiological saline to give a uniform solution or suspension (1 mg/ml).
The LPS solution (10 ml/kg) prepared above was intraperitoneally administered to each test mouse. Immediately after the administration of the LPS solution, the solution of each candidate compound prepared above (10 ml/kg, containing 10 mg/kg of the candidate compound) was subcutaneously injected to each animal. After one hour from the administration of the LPS, each animal was decapitated, the blood was collected from the animal and the blood was centrifuged at 4° C., 3000 rpm for 5 minutes. The resulting plasma was inspected for the level of TNF-α using the mouse TNF-α -specific ELISA kit. In this connection, any TNF-α was not detected in the plasma derived from the animal group free of the LPS-administration (control group).
The rate of TNF-α production-inhibitory effect observed for each candidate compound was determined according to the following equation:
Inhibitory Rate (%)=100×(A−B)/A
Wherein A is the level of TNF-α detected in the plasma derived from the animal group to which any candidate compound was not administered and B is the level of TNF-α detected in the plasma derived from the animal group to which a candidate compound was administered.

Point of comparison: `CCN1CCCC1CNC(=O)N(CCSC(C)=O)CCC1CCCCC1` (racemic) [Compound 3-17, 1-[2-(Acetylthio)ethyl]-1-(2-cyclohexylethyl)-3-[[(2RS)-1-ethyl-2-pyrrolidinyl]methyl] urea], “Inhibitory Rate (%) of TNF-α production” value 52%. Against it:
- CC(=O)SCCN(CCC1CCCCC1)C(=O)NCCCN1CCCC1 [Compound 3-3, 1-[2-(Acetylthio)ethyl]-1-(2-cyclohexylethyl)-3-[3-(1-pyrrolidinyl)propyl]-urea] — higher, 64%
- CC(=O)SCCN(CCC1CCCCC1)C(=O)NCCN1CCCCC1.Cl [Compound 6-1, 1-[2-(Acetylthio)ethyl]-1-(2-cyclohexylethyl)-3-[2-(1-piperidyl)-ethyl]urea hydrochloride] — higher, 78%
- CC(=O)SCCN(CCC1CCCCC1)C(=O)NCCN1CCCCCC1 [Compound 3-9, 1-[2-(Acetylthio)ethyl]-1-(2-cyclohexylethyl)-3-[2-(l-homopiperidyl)ethyl]-urea] — higher, 76%
- CC(=O)SCCN(CCC1CCCCC1)C(=O)NCCCN1CCCCC1 [Compound 3-4, 1-[2-(Acetylthio)ethyl]-1-(2-cyclohexylethyl)-3-[3-(1-piperidyl)propyl]urea] — lower, 51%
- CSCCN(CCC1CCCCC1)C(=O)NCCN1CCCCC1.Cl [Compound 6-4, 1-(2-Cyclohexylethyl)-1-[2-(methylthio)ethyl]-3-[2-(1-piperidyl)ethyl]urea hydrochloride] — higher, 59%
- CC(=O)SCCN(CCC1CCCCC1)C(=O)NCC1CCN(C)CC1.Cl [Compound 6-3, 1-[2-(Acetylthio)ethyl]-1-(2-cyclohexylethyl)-3-[(1-methyl-4-piperidyl)-methyl]urea hydrochloride] — lower, 50%
- CC(=O)SCCN(CCC1CCCCC1)C(=O)NCCN1CCCC1 [Compound 3-2, 1-[2-(Acetylthio)ethyl]-1-(2-cyclohexylethyl)-3-[2-(1-pyrrolidinyl)ethyl]-urea] — lower, 50%

system: TNF-α produced by the human monocyte strain THP-1; test: In vitro test: TNF-α production by THP-1 cells induced by stimulation with LPS; format: cell-based; conditions: 2 h; compound 10^−5M; THP-1 cells 10^6 cells/ml; LPS 2 μg/ml; 37° C., two hours; human TNF-α ELISA; read-out: Inhibitory Rate (%) of TNF-α production
Protocol: as §1
The test was carried out by, determining the amount of TNF-α produced by the human monocyte strain THP-1 induced by the stimulation with LPS.
The culture medium used in this test was RPMI 1640 culture medium supplemented wiTNFetal calf serum (10%), L-glutamine (2 mM), 2-mercaptoethanol (50 μM), penicillin (50 units/ml) and streptomycin (50 μg/ml).
Regarding the cells, the human monocyte strain THP-1 cells cultivated in the foregoing culture medium were centrifuged at 100 xg for 5 minutes to remove the supernatant and then again suspended in a fresh culture medium prior to the practical use. The LPS used herein was derived from S. Typhimurium and this was dissolved in purified water and then diluted with the culture medium prior to use. Each compound to be tested was dissolved in dimethyl sulfoxide (DMSO) and diluted with the culture medium prior to the practical use.
The cells (10^6 cells/ml) prepared according to the foregoing method were admixed with the LPS (2 μg/ml) and a compound to be tested (10^−5M), the cells were incubated at 37° C. for two hours and then centrifuged at 1000 xg for 5 minutes. The resulting supernatant of the culture medium was inspected for the level of TNF-α using the human TNF-α -specific ELISA kit. In this connection, it was confirmed that the supernatant obtained by cultivating the cells in the culture medium free of any LPS (control) never included any TNF-α.
The rate of the TNF-α production inhibitory effect observed for each candidate compound was determined according to the following equation: […]
Wherein A is the level of TNF-α detected in the supernatant obtained from the culture medium free of any candidate compound and B is the level of TNF-α detected in the supernatant obtained from the culture medium containing a candidate compound.

Point of comparison: `CC(=O)SCCN(CCC1CCCCC1)C(=O)NCCN1CC=CCC1` [Compound 3-13, 1-[2-(Acetylthio)ethyl]-1-(2-cyclohexylethyl)-3-[2-(1,2,5,6-tetrahydropyridin-1-yl)ethyl] urea], inhibition at 10 µM 66%. Against it:
- CC(=O)SCCN(CCC1CCCCC1)C(=O)NCCN1CCC(N(C)C)CC1.Cl.Cl [Compound 6-2, 1-[2-(Acetylthio)ethyl]-1-(2-cyclohexylethyl)-3-[2-[4-(dimethylamino)-1-piperidyl]ethyl]urea di-hydrochloride] — lower, 58%
- CC(=O)SCCN(CCc1ccccc1)C(=O)N[C@@H](Cc1ccccc1)CN1CCN(C)CC1 [Compound 3-6, 1-[2-(Acetylthio)ethyl]-3-[(1S)-1-benzyl-2-(4-methylpiperazin-1-yl)ethyl]-1-phenethyl urea] — higher, 94%

system: not given; test: not given; conditions: not given

In the case of `CC(=O)SCCN(CCC1CCCCC1)C(=O)NCCN1CCC(N(C)C)CC1.Cl.Cl` [Compound 6-2, 1-[2-(Acetylthio)ethyl]-1-(2-cyclohexylethyl)-3-[2-[4-(dimethylamino)-1-piperidyl]ethyl]urea di-hydrochloride], the melting point is reported as 170 °C (dec.).

With `O=C(NCC1CCN(C(=O)OCc2ccccc2)CC1)N(CCO)CCC1CCCCC1` [Compound 1-18, 1-[[1-(Benzyloxycarbonyl)-4-piperidyl]methyl]-3-(2-cyclohexylethyl)-3-(2-hydroxy-ethyl) urea] the melting point was 94.5 to 95.5 °C.

— US6534499B2, “N-substituted-N′-substituted urea derivatives and the use thereof as TNF-α production inhibitory agents” (Santen Pharmaceutical Co., Ltd., priority 1999, dated 2003)
